Results: ChEMBL document CHEMBL1201862, “PubChem BioAssay data set” (2004)
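Values below derive from 48-hour exposures of cells grown in 96-well plates, with endpoints linearly interpolated between the two concentrations bracketing the appropriate inhibition level. GI50 marks 50% less growth.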 Active and inactive are the calls of the source. Cut-off read from the data, not from the text of the source: active = GI50 up to about 1.1 µM and inactive = higher.

Experiments:
Assay in all cases: growth of human tumour cells (NCI), 48 h
LOX IMVI = tested on: LOX IMVI
SW-620 = tested on: SW-620
SK-MEL-5 = tested on: SK-MEL-5
OVCAR-4 = tested on: OVCAR-4
M14 = tested on: M14
SF-539 = tested on: SF-539
TK-10 = tested on: TK-10
Hs-578T = tested on: Hs-578T
NCI/ADR-RES = tested on: NCI/ADR-RES
MDA-MB-435 = tested on: MDA-MB-435
SNB-75 = tested on: SNB-75
UACC-257 = tested on: UACC-257
SK-OV-3 = tested on: SK-OV-3
DU-145 = tested on: DU-145
SN12C = tested on: SN12C
K562 = tested on: K562
U-251 = tested on: U-251
PC-3 = tested on: PC-3
COLO 205 = tested on: COLO 205
NCI-H460 = tested on: NCI-H460

Compound | GI50 (LOX IMVI) | GI50 (SW-620) | GI50 (SK-MEL-5) | GI50 (OVCAR-4) | GI50 (M14) | GI50 (SF-539) | GI50 (TK-10) | GI50 (Hs-578T) | GI50 (NCI/ADR-RES) | GI50 (MDA-MB-435) | GI50 (SNB-75) | GI50 (UACC-257) | GI50 (SK-OV-3) | GI50 (DU-145) | GI50 (SN12C) | GI50 (K562) | GI50 (U-251) | GI50 (PC-3) | GI50 (COLO 205) | GI50 (NCI-H460)
C=C(Br)CNC(=O)CCC(=O)NCC(=C)Br | > 100 µM (inactive) | > 100 µM (inactive) | > 100 µM (inactive) | > 100 µM (inactive) | > 100 µM (inactive) | > 100 µM (inactive) | > 100 µM (inactive) | > 100 µM (inactive) | > 100 µM (inactive) | > 100 µM (inactive) | > 100 µM (inactive) | > 100 µM (inactive) | > 100 µM (inactive) | > 100 µM (inactive) | > 100 µM (inactive) | > 100 µM (inactive) | > 100 µM (inactive) | > 100 µM (inactive) | > 100 µM (inactive) | > 100 µM (inactive)
OCCn1cnc2c(SCc3ccccc3)ncnc21 | 61.1 µM (inactive) | > 100 µM (inactive) | > 100 µM (inactive) | > 100 µM (inactive) | > 100 µM (inactive) | 87.5 µM (inactive) | > 100 µM (inactive) | 69.7 µM (inactive) | > 100 µM (inactive) | > 100 µM (inactive) | > 100 µM (inactive) | > 100 µM (inactive) | > 100 µM (inactive) | > 100 µM (inactive) | > 100 µM (inactive) | 79.4 µM (inactive) | 52.4 µM (inactive) | 61 µM (inactive) | 95.5 µM (inactive) | 19.6 µM (inactive)
O=P(NC12CC3CC(CC(C3)C1)C2)(N1CC1)N1CC1 | 11.1 µM (inactive) | > 86.5 µM (inactive) | 34.9 µM (inactive) | > 100 µM (inactive) | 37.1 µM (inactive) | 15.9 µM (inactive) | > 100 µM (inactive) | 89.3 µM (inactive) | 53 µM (inactive) | > 100 µM (inactive) | 22.4 µM (inactive) | > 100 µM (inactive) | > 55.5 µM (inactive) | 6.31 µM (inactive) | 10.5 µM (inactive) | 37.6 µM (inactive) | 27.4 µM (inactive) | > 100 µM (inactive) | > 100 µM (inactive) | 2.46 µM (inactive)
O=C(O)c1cc(C(=O)O)cc(N2C(=O)c3ccccc3C2=O)c1 | > 100 µM (inactive) | > 100 µM (inactive) | > 100 µM (inactive) | > 100 µM (inactive) | > 100 µM (inactive) | > 100 µM (inactive) | > 100 µM (inactive) | > 100 µM (inactive) | > 100 µM (inactive) | > 100 µM (inactive) | > 100 µM (inactive) | > 100 µM (inactive) | > 100 µM (inactive) | > 100 µM (inactive) | > 100 µM (inactive) | > 100 µM (inactive) | > 100 µM (inactive) | > 100 µM (inactive) | > 100 µM (inactive) | > 100 µM (inactive)
CC(=O)N1C(C(=O)NC2CCCCC2)CSC1c1ccccc1 (stereo unspecified) | > 100 µM (inactive) | > 100 µM (inactive) | > 100 µM (inactive) | > 100 µM (inactive) | > 100 µM (inactive) | > 100 µM (inactive) | > 100 µM (inactive) | > 100 µM (inactive) | > 100 µM (inactive) | > 100 µM (inactive) | > 100 µM (inactive) | > 100 µM (inactive) | > 100 µM (inactive) | > 100 µM (inactive) | > 100 µM (inactive) | > 100 µM (inactive) | > 100 µM (inactive) | > 100 µM (inactive) |  | > 100 µM (inactive)
CN(C)CCNC(=O)c1cccc2c(NC(CS)C(=O)O)c3ccccc3[n+](C)c12 (stereo unspecified) | 32.8 µM (inactive) | 39.7 µM (inactive) | 47 µM (inactive) | > 100 µM (inactive) | > 100 µM (inactive) | 80.4 µM (inactive) | > 100 µM (inactive) | > 100 µM (inactive) | 33.8 µM (inactive) | 68.5 µM (inactive) | 41.6 µM (inactive) | 60.3 µM (inactive) | > 100 µM (inactive) | 37.6 µM (inactive) | 49.4 µM (inactive) | 87.9 µM (inactive) | > 100 µM (inactive) | 49 µM (inactive) | 43.9 µM (inactive) | 45.5 µM (inactive)
C/C(=N\N)C(CN1CCOCC1)C(c1ccccc1)c1c(O)c2ccccc2oc1=O (stereo unspecified) | 26.4 µM (inactive) | > 100 µM (inactive) | > 64.9 µM (inactive) | 77.3 µM (inactive) | > 76.6 µM (inactive) | > 100 µM (inactive) | > 100 µM (inactive) | > 100 µM (inactive) | 65.9 µM (inactive) | 53.7 µM (inactive) | 42.9 µM (inactive) | > 100 µM (inactive) | > 100 µM (inactive) | > 100 µM (inactive) | > 100 µM (inactive) | 47.6 µM (inactive) | > 76.9 µM (inactive) | > 100 µM (inactive) | > 44.8 µM (inactive) | > 80.7 µM (inactive)
COc1cc(OC)c(C2(c3c(OC(C)C)c(=O)c3=O)SCCCS2)cc1OC | > 100 µM (inactive) | > 100 µM (inactive) | > 100 µM (inactive) | > 100 µM (inactive) | > 100 µM (inactive) | > 100 µM (inactive) | > 100 µM (inactive) | > 100 µM (inactive) | > 100 µM (inactive) | > 100 µM (inactive) | > 100 µM (inactive) | > 100 µM (inactive) | > 100 µM (inactive) | > 100 µM (inactive) | > 100 µM (inactive) | > 100 µM (inactive) | > 100 µM (inactive) | > 100 µM (inactive) | > 100 µM (inactive) | > 100 µM (inactive)
O=Cc1ccccc1B(O)O | 20.7 µM (inactive) | 25.7 µM (inactive) |  | 0.368 µM (active) | > 100 µM (inactive) | > 100 µM (inactive) | 55.6 µM (inactive) | 0.231 µM (active) | 52 µM (inactive) | 99.1 µM (inactive) | 43.8 µM (inactive) | 25.8 µM (inactive) | > 100 µM (inactive) | < 0.01 µM (active) | > 100 µM (inactive) | 23.1 µM (inactive) | 30.7 µM (inactive) | 22.1 µM (inactive) | 14.7 µM (inactive) | > 100 µM (inactive)
O=C(O)c1c[nH]c2c(Sc3ccccc3)nccc2c1=O | 44.2 µM (inactive) | > 100 µM (inactive) | > 100 µM (inactive) | > 100 µM (inactive) | > 100 µM (inactive) | > 100 µM (inactive) | > 100 µM (inactive) | > 100 µM (inactive) | > 100 µM (inactive) | > 100 µM (inactive) | > 100 µM (inactive) | > 100 µM (inactive) | > 100 µM (inactive) | > 100 µM (inactive) | > 100 µM (inactive) |  | > 100 µM (inactive) | > 100 µM (inactive) | > 100 µM (inactive) | > 100 µM (inactive)
CC(C)CCCC(C)[C@H]1CC[C@H]2[C@@H]3CC[C@H]4C[C@@H](CCC=C(c5cc(Cl)c(O)c(C(=O)OC(C)C)c5)c5cc(Cl)c(O)c(C(=O)OC(C)C)c5)CC[C@]4(C)[C@H]3CC[C@]12C (stereo partly specified) | > 50 µM (inactive) | > 50 µM (inactive) | > 50 µM (inactive) | > 50 µM (inactive) | > 50 µM (inactive) | > 50 µM (inactive) |  | > 50 µM (inactive) | > 50 µM (inactive) | > 50 µM (inactive) | > 50 µM (inactive) |  | > 50 µM (inactive) | > 50 µM (inactive) | > 50 µM (inactive) | > 50 µM (inactive) | > 50 µM (inactive) | > 50 µM (inactive) | > 50 µM (inactive) | 
Cc1c(-c2ccccc2)c(C#N)c2nnn(-c3ccc([N+](=O)[O-])cc3)c(=O)n12 | 17.5 µM (inactive) | 7.78 µM (inactive) | 33 µM (inactive) | 10.4 µM (inactive) |  | 10.1 µM (inactive) | 28.1 µM (inactive) | 14.1 µM (inactive) | 15.9 µM (inactive) | 24.8 µM (inactive) | 14.5 µM (inactive) | > 100 µM (inactive) | 23.4 µM (inactive) | 5.38 µM (inactive) | 22.4 µM (inactive) | 20.5 µM (inactive) | 9.93 µM (inactive) | 3.48 µM (inactive) | 7.35 µM (inactive) | 22.5 µM (inactive)
COc1ccc(N2C(=O)C3c4[nH]c5cccc(C)c5c4C4CCC(C(C)(C)C)CC4C3C2=O)cc1 (stereo unspecified) | 8.3 µM (inactive) | > 10 µM (inactive) | > 10 µM (inactive) | 0.796 µM (active) | > 10 µM (inactive) | > 10 µM (inactive) | > 10 µM (inactive) | > 10 µM (inactive) | > 10 µM (inactive) | > 10 µM (inactive) | 5.15 µM (inactive) |  | > 10 µM (inactive) | > 10 µM (inactive) | > 10 µM (inactive) | > 10 µM (inactive) | 9.91 µM (inactive) | > 10 µM (inactive) | > 10 µM (inactive) | 4.68 µM (inactive)
O=C1CSC(c2ccccc2O)N1c1ccc(-c2ccc(-n3c(-c4ccccc4)nc4ccccc4c3=O)cc2)cc1 (stereo unspecified) | 25.7 µM (inactive) | 22.8 µM (inactive) |  | 31 µM (inactive) | 38.5 µM (inactive) | 32.1 µM (inactive) | 16.1 µM (inactive) | 40.1 µM (inactive) | 30.1 µM (inactive) | 33.5 µM (inactive) | 24.9 µM (inactive) | 50.1 µM (inactive) | 64.1 µM (inactive) | 49 µM (inactive) | 74 µM (inactive) | 24.9 µM (inactive) | 33.7 µM (inactive) | 27.7 µM (inactive) | 21.6 µM (inactive) | 35.7 µM (inactive)
